Experimental data as given in patent USRE32310E, “Derivatives of A-21978C cyclic peptides” (Eli Lilly and Company, priority 1985, dated 1986).
≈ marks a conversion by molar mass, not a printed value.

Columns and labels:
[1] = test system: Micrococcus luteus ATCC 9341; experiment: Agar-plate disc-diffusion test; assay type: cell-based; conditions: 1 mg/ml, 7mm disc, 24-48 hours at 25-37° C.
[2] = test system: Bacillus subtilis ATCC 6633; experiment: Agar-plate disc-diffusion test; conditions: 1 mg/ml, 7mm disc
Procedure: ^a Compounds were suspended in water at a concentration of 1 mg/ml; a
7mm disc was dipped into the suspension and then placed on the agar
surface; incubation 24-48 hours at 25-37° C.

[3] = test system: Staphylococcus aureus ATCC 6738P; experiment: Agar-plate disc-diffusion test; assay type: cell-based; conditions: compound suspended in water at 1 mg/ml, 7mm disc, 24-48 hours at 25-37° C.
Staphylococcus aureus = experiment: In vivo activity against experimental bacterial infection; conditions: mice, subcutaneous, two doses
Procedure: (§1) The representative A-21978C cyclic peptide of formula 1 has shown in vivo antimicrobial activity against experimental bacterial infections. When two doses of test compound were administered to mice in illustrative infections, the activity observed was measured as an ED50 value [effective dose in mg/kg to protect fifty percent of the test animals: See Warren Wick, et al., J. Bacteriol. 81, 233-235 (1961)].

Streptococcus pyogenes = experiment: as above; conditions: mice, two doses
Procedure: as §1

[4] = test system: Staphylococcus aureus X400; experiment: Standard agar-dilution test (MIC); assay type: cell-based; conditions: Staphylococcus aureus X400, methicillin-resistant strain
Procedure: (§2) The results of the antibacterial testing of a representative compound of formula 1, using the standard agar-dilution test, are summarized in Table II. In Table II activity is measured by the minimal inhibitory concentration (MIC), i.e. the lowest concentration of compound which inhibits the growth of the microorganism.

[5] = test system: Staphylococcus epidermidis EPI1; experiment: Standard agar-dilution test (MIC); assay type: cell-based
Procedure: as §2

[6] = test system: Staphylococcus epidermidis EPI2; experiment: Standard agar-dilution test (MIC); assay type: cell-based
Procedure: as §2

[7] = test system: Streptococcus Group D X66; experiment: Standard agar-dilution test (MIC); assay type: cell-based
Procedure: as §2

[8] = test system: Staphylococcus aureus X1.1; experiment: Standard agar-dilution test (MIC); assay type: cell-based
Procedure: as §2

Streptococcus Group 9960 = experiment: Standard agar-dilution test (MIC); assay type: cell-based
Procedure: as §2

[9] = test system: Streptococcus pyogenes C203; experiment: Standard agar-dilution test (MIC); assay type: cell-based
Procedure: as §2

[10] = test system: Staphylococcus aureus V41; experiment: Standard agar-dilution test (MIC); assay type: cell-based; conditions: Staphylococcus aureus V41, penicillin-resistant strain
Procedure: as §2

[11] = test system: Staphylococcus aureus S13E; experiment: Standard agar-dilution test (MIC); assay type: cell-based
Procedure: as §2

[12] = B. subtilis ATCC 6633 grown on minimal nutrient agar
[13] = Bacillus subtilis ATCC 6633, 24-48 hours at 25-37° C.

Compound: NTrp -p-(n-Dodecyloxy)benzoyl-NOrn -t-BOC-A-21978C Nucleus [p-(n-dodecyloxy)benzoyl t-BOC]
- Size of Zone of Inhibition [1]: 15 mm
- Size of Zone of Inhibition [2, 12]: 22 mm
- Size of Zone of Inhibition [2, 13]: 10 mm
- Size of Zone of Inhibition [3]: 20 mm

Compound: CCCCCCCCCCCCOc1ccc(C(=O)N[C@@H](Cc2c[nH]c3ccccc23)C(=O)N[C@H](CC(N)=O)C(=O)N[C@@H](CC(=O)O)C(=O)N[C@@H]2C(=O)NCC(=O)N[C@@H](CCCN)C(=O)N[C@@H](CC(=O)O)C(=O)N[C@H](C)C(=O)N[C@@H](CC(=O)O)C(=O)NCC(=O)N[C@H](CO)C(=O)N[C@@H]([C@H](C)CC(=O)O)C(=O)N[C@@H](CC(=O)c3ccccc3N)C(=O)O[C@@H]2C)cc1 [NTrp --p-(n-Dodecyloxy)benzoyl-A-21978C, NTrp -p-(n-dodecyloxy)benzoyl-A-21978C Nucleus]
- ED50 Values (Staphylococcus aureus): 3.35 mg/kg × 2
- ED50 Values (Streptococcus pyogenes; oral): > 200 mg/kg × 2
- ED50 Values (Streptococcus pyogenes; subcutaneous): 0.31 mg/kg × 2
- MIC Values [4]: 2 µg/mL (≈ 1.14 µM)
- MIC Values [5]: 4 µg/mL (≈ 2.28 µM)
- MIC Values [6]: 2 µg/mL (≈ 1.14 µM)
- MIC Values [7]: 2 µg/mL (≈ 1.14 µM)
- MIC Values [8]: 1 µg/mL (≈ 0.57 µM)
- MIC Values (Streptococcus Group 9960): 1 µg/mL (≈ 0.57 µM)
- MIC Values [9]: 0.25 µg/mL (≈ 0.142 µM)
- MIC Values [10]: 1 µg/mL (≈ 0.57 µM)
- MIC Values [11]: 1 µg/mL (≈ 0.57 µM)
- Size of Zone of Inhibition [1]: 18 mm
- Size of Zone of Inhibition [2, 12]: 20 mm
- Size of Zone of Inhibition [2, 13]: 13 mm
- Size of Zone of Inhibition [3]: 20 mm
